A word on the pIC50: it is the IC50 on a negative log10 scale, so that one unit is a factor of ten. Broadly, the pEC50 is the negative decadic logarithm of the EC50, by convention in mol/L.

IC50 and EC50 data for 23 compounds are collected here from US11584744B2 (UNIVERSITY OF WASHINGTON, priority 2017, dated 2023).

Each structure is given as a SMILES string. pEC50, pIC50: −log10 of the molar value.

One experiment deals with T1, MetRS (T. brucei) (Trypanosoma brucei brucei, UniProt Q38C91).
T1 sequence (Q38C91 1-773): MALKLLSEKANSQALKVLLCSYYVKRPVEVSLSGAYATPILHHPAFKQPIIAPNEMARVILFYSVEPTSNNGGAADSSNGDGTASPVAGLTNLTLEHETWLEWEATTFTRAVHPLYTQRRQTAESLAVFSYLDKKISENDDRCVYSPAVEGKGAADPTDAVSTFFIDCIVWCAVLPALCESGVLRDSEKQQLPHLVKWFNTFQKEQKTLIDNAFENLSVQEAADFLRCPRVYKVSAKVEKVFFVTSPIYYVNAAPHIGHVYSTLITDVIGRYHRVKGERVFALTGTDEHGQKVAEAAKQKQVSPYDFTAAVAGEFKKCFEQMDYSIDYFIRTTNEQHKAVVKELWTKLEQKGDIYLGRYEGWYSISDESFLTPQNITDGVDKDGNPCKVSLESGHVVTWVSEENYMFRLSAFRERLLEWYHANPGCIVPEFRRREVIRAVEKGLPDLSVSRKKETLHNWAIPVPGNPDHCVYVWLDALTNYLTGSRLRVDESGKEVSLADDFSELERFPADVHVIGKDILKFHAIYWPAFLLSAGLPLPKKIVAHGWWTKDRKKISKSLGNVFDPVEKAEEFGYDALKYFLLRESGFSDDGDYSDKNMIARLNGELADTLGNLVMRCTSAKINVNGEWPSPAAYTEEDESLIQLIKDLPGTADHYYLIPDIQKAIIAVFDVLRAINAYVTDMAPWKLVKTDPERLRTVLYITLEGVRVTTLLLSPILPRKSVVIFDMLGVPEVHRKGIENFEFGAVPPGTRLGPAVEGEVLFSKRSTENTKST
Briefly: MetRS (T. brucei) enzyme inhibition. In kind it is biochemical.

In a further experiment the target is MetRS (C. parvum) (Cryptosporidium parvum, UniProt Q5CVN0). Briefly: MetRS (C. parvum) enzyme inhibition. The experiment is classed as biochemical. As to conditions: read-out: (C) MetRS (C. parvum) IC50.
A further experiment has as its system T. brucei. Briefly: T. brucei growth inhibition. In kind it is cell-based, Trypanosoma brucei. The conditions noted are these: Trypanosoma brucei; read-out: (D) T. brucei EC50.

Chain of MetRS (C. parvum) (Q5CVN0 entry or part of it): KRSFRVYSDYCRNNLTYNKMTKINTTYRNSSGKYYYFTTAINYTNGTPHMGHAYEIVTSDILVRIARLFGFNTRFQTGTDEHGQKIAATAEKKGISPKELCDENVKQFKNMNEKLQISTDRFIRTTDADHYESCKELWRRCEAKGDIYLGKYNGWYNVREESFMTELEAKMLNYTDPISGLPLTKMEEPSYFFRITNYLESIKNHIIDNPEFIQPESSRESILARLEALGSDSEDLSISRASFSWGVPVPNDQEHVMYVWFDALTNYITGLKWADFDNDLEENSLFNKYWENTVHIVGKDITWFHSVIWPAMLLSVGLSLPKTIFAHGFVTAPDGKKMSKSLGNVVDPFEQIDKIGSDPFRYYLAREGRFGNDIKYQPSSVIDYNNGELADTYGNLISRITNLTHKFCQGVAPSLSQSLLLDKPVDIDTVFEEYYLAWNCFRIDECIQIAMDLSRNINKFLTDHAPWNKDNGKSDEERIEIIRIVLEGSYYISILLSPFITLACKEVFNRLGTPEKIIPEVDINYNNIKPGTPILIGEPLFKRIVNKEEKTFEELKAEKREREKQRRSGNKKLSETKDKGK

Take `Fc1ccc2[nH]c(Cc3cn4c(-c5ccc(C(F)(F)F)cc5Cl)cccc4n3)nc2n1` [Compound 2127, 5-[2-chloro-4-(trifluoromethyl)phenyl]-2-({5-fluoro-1H-imidazo[4,5-b]pyridin-2-yl}methyl)imidazo[1,2-a]pyridine]: the pIC50 on MetRS (T. brucei) is 7.20; at MetRS (C. parvum), less than 6.00. The pEC50 with T. brucei is less than 5.70.

Take `COc1ccc(-c2cccn3cc(Cc4nc5nc(Cl)ccc5[nH]4)nc23)c(Cl)c1` [Compound 2149, 2-({5-chloro-1H-imidazo[4,5-b]pyridin-2-yl}methyl)-8-(2-chloro-4-methoxyphenyl)imidazo[1,2-a]pyridine]: the results for the pIC50 at MetRS (T. brucei) and at MetRS (C. parvum) were 7.35 and less than 6.00, respectively. The pEC50 in the experiment on T. brucei is less than 5.70.

As for `COc1cc(Cl)c(-c2cccc3nc(Cc4nc5nc(Cl)ccc5[nH]4)cn23)cc1Cl` [Compound 2132, 2-({5-chloro-1H-imidazo[4,5-b]pyridin-2-yl}methyl)-5-(2,5-dichloro-4-methoxyphenyl)imidazo[1,2-a]pyridine], the values for the negative logarithm of the IC50 (pIC50) at MetRS (T. brucei) and at MetRS (C. parvum) were more than 7.40 and 6.18, respectively. Besides, in the experiment on T. brucei, the pEC50 is 6.29.

On to `COc1ccc(-c2cnc3ccc(NCc4nc5nc(F)ccc5[nH]4)cn23)c(Cl)c1` [Compound 2173, 3-(2-chloro-4-methoxyphenyl)—N-((5-fluoro-1H-imidazo[4,5-b]pyridin-2-yl)methyl)imidazo[1,2-a]pyridin-6-amine], for which the pIC50 on MetRS (T. brucei) was 7.24; on MetRS (C. parvum), 6.73. Moreover, the pEC50 in the experiment on T. brucei is less than 5.70.

On to `Clc1ccc(Cc2cn(Cc3nc4ccc(Cl)cc4[nH]3)c(Br)n2)c(Cl)c1` [Compound 2194, 2-({2-bromo-4-[(2,4-dichlorophenyl)methyl]-1H-imidazol-1-yl}methyl)-6-chloro-1H-1,3-benzodiazole], for which the pIC50 against MetRS (T. brucei) is less than 5.00; at MetRS (C. parvum), less than 6.00. The pEC50 with T. brucei was less than 5.70.

As for `OCCNc1nc(Cc2ccc(Cl)cc2Cl)cn1Cc1nc2ccc(Cl)cc2[nH]1` [Compound 2196, 2-({1-[(6-chloro-1H-1,3-benzodiazol-2-yl)methyl]-4-[(2,4-dichlorophenyl)methyl]-1H-imidazol-2-yl}amino)ethan-1-ol], the results for the negative logarithm of the IC50 (pIC50) on MetRS (T. brucei) and at MetRS (C. parvum) were 5.89 and less than 6.00, respectively. In addition, the pEC50 in the experiment on T. brucei was less than 5.70.

For `COc1ccc(-c2cccn3c(S(C)(=O)=O)c(Cc4nc5nc(Cl)ccc5[nH]4)nc23)c(Cl)c1` [Compound 2151, 2-({5-chloro-1H-imidazo[4,5-b]pyridin-2-yl}methyl)-8-(2-chloro-4-methoxyphenyl)-3-methanesulfonylimidazo[1,2-a]pyridine], the pIC50 against MetRS (T. brucei) is more than 7.40; at MetRS (C. parvum) it was 6.21. Further, the pEC50 in the experiment with T. brucei is 6.44.

Consider `FC(F)(F)c1ccc(-c2cccc3nc(Cc4nc5nc(Cl)ccc5[nH]4)cn23)c(Cl)c1` [Compound 2126, 2-({5-chloro-1H-imidazo[4,5-b]pyridin-2-yl}methyl)-5-[2-chloro-4-(trifluoromethyl)phenyl]imidazo[1,2-a]pyridine], for which the pIC50 against MetRS (T. brucei) was 7.40; at MetRS (C. parvum) it was less than 6.00. In addition, the negative logarithm of the EC50 (pEC50) in the experiment with T. brucei was 5.75.

`CCn1c(Cc2ccc(Cl)cc2Cl)cn(C(C)c2nc3nc(F)ccc3[nH]2)c1=O` (stereo not drawn) [Compound 2143, 4-[(2,4-dichlorophenyl)methyl]-3-ethyl-1-(1-{5-fluoro-1H-imidazo[4,5-b]pyridin-2-yl}ethyl)-2,3-dihydro-1H-imidazol-2-one]: the pIC50 against MetRS (T. brucei) was more than 7.40; at MetRS (C. parvum), 7.02. Besides, in the experiment with T. brucei, the negative-log EC50 (pEC50) is 6.09.

In the case of `CCOc1ccc(-c2cccc3nc(Cc4nc5nc(Cl)ccc5[nH]4)cn23)c(Cl)c1` [Compound 2164, 2-({5-chloro-1H-imidazo[4,5-b]pyridin-2-yl}methyl)-5-(2-chloro-4-ethoxyphenyl)imidazo[1,2-a]pyridine], the pIC50 against MetRS (T. brucei) is 6.84; at MetRS (C. parvum), less than 6.00. Moreover, the pEC50 in the experiment on T. brucei was 5.72.

Regarding `COc1ccc(-c2cccn3cc(Cc4nc5nc(F)ccc5[nH]4)nc23)c(Cl)c1` [Compound 2148, 8-(2-chloro-4-methoxyphenyl)-2-({5-fluoro-1H-imidazo[4,5-b]pyridin-2-yl}methyl)imidazo[1,2-a]pyridine], the pIC50 against MetRS (T. brucei) is 7.22; on MetRS (C. parvum) it was 6.00. The pEC50 with T. brucei is less than 5.70.

For `CSc1ncc(Cc2ccc(Cl)cc2Cl)n1Cc1nc2nc(Cl)ccc2[nH]1` [Compound 2113, 1-({5-chloro-1H-imidazo[4,5-b]pyridin-2-yl}methyl)-5-[(2,4-dichlorophenyl)methyl]-2-(methylsulfanyl)-1H-imidazole], the results for the negative logarithm of the IC50 (pIC50) at MetRS (T. brucei) and at MetRS (C. parvum) were 5.70 and less than 6.00, respectively. In the experiment on T. brucei, the negative-log EC50 (pEC50) is 5.71.

Regarding `COc1ccc(-c2cccc3c2CN(Cc2nc4nc(Cl)ccc4[nH]2)CC3)c(Cl)c1` [Compound 2161, 2-({5-chloro-1H-imidazo[4,5-b]pyridin-2-yl}methyl)-8-(2-chloro-4-methoxyphenyl)-1,2,3,4-tetrahydroisoquinoline], the pIC50 against MetRS (T. brucei) was more than 7.40; on MetRS (C. parvum), 6.60. For the same compound, in the experiment with T. brucei, the negative logarithm of the EC50 (pEC50) is 5.98.

As to `COc1ccc(-c2ccc(N)c3nc(Cc4nc5cc(Cl)ccc5[nH]4)cn23)c(Cl)c1` [Compound 2179, 2-[(6-chloro-1H-1,3-benzodiazol-2-yl)methyl]-5-(2-chloro-4-methoxyphenyl)imidazo[1,2-a]pyridin-8-amine], the pIC50 at MetRS (T. brucei) is more than 7.40; at MetRS (C. parvum), 7.12. Further, in the experiment on T. brucei, the pEC50 was 6.74.

As for `COc1ccc(-n2ccc(=O)c3cc(F)c(Cc4nc5nc(Cl)ccc5[nH]4)cc32)c(Cl)c1` [Compound 2178, 7-((5-chloro-1H-imidazo[4,5-b]pyridin-2-yl)methyl)-1-(2-chloro-4-methoxyphenyl)-6-fluoroquinolin-4(1H)-one], the pIC50 on MetRS (T. brucei) is 6.94; at MetRS (C. parvum) it was 6.06. In addition, in the experiment on T. brucei, the pEC50 was 5.25.

On to `CC(=O)Nc1nc(Cc2ccc(Cl)cc2Cl)cn1Cc1nc2ccc(Cl)cc2[nH]1` [Compound 2193, N-{1-[(6-chloro-1H-1,3-benzodiazol-2-yl)methyl]-4-[(2,4-dichlorophenyl)methyl]-1H-imidazol-2-yl}acetamide], for which the pIC50 against MetRS (T. brucei) is more than 7.40; on MetRS (C. parvum), 6.63. For the same compound, the pEC50 in the experiment on T. brucei was 6.59.

With `COc1ccc(-c2nn(C)c3c2CN(Cc2nc4nc(Cl)ccc4[nH]2)CC3)c(Cl)c1` [Compound 2187, 5-((5-chloro-1H-imidazo[4,5-b]pyridin-2-yl)methyl)-3-(2-chloro-4-methoxyphenyl)-1-methyl-4,5,6,7-tetrahydro-1H-pyrazolo[4,3-c]pyridine], the negative-log IC50 (pIC50) against MetRS (T. brucei) is 6.93; at MetRS (C. parvum) it was 6.95. The pEC50 in the experiment on T. brucei is less than 5.70.

As for `COc1cc(Cl)c(-c2cccc3nc(Cc4nc5nc(F)ccc5[nH]4)cn23)cc1Cl` [Compound 2133, 5-(2,5-dichloro-4-methoxyphenyl)-2-({5-fluoro-1H-imidazo[4,5-b]pyridin-2-yl}methyl)imidazo[1,2-a]pyridine], the negative-log IC50 (pIC50) against MetRS (T. brucei) is more than 7.40; at MetRS (C. parvum), 6.45. Moreover, the pEC50 in the experiment with T. brucei was 6.07.

`COc1ccc(-c2cccc3c2CN(Cc2nc4nc(F)ccc4[nH]2)CC3)c(Cl)c1` [Compound 2167, 8-(2-chloro-4-methoxyphenyl)-2-((5-fluoro-1H-imidazo[4,5-b]pyridin-2-yl)methyl)-1,2,3,4-tetrahydroisoquinoline]: the negative-log IC50 (pIC50) is 6.69 at MetRS (T. brucei) and 6.30 at MetRS (C. parvum). Also, the negative logarithm of the EC50 (pEC50) in the experiment with T. brucei is less than 5.70.

As for `Clc1ccc(Cn2cnc(Cc3nc4nc(Cl)ccc4[nH]3)c2)c(Cl)c1` [Compound 2190, 4-({5-chloro-1H-imidazo[4,5-b]pyridin-2-yl}methyl)-1-[(2,4-dichlorophenyl)methyl]-1H-imidazole], the values for the negative-log IC50 (pIC50) at MetRS (T. brucei) and at MetRS (C. parvum) were more than 7.40 and 7.04, respectively. The pEC50 in the experiment on T. brucei was 6.76.

Consider `Fc1ccc2[nH]c(Cc3cn4c(-c5cc(Cl)cc(Cl)c5)cccc4n3)nc2n1` [Compound 2131, 5-(3,5-dichlorophenyl)-2-({5-fluoro-1H-imidazo[4,5-b]pyridin-2-yl}methyl)-imidazo[1,2-a]pyridine], for which the figures for the negative-log IC50 (pIC50) against MetRS (T. brucei) and on MetRS (C. parvum) were 6.49 and 6.09, respectively. Moreover, the pEC50 with T. brucei is 6.71.

`COc1ccc(-c2c3c(nn2C)CCN(Cc2nc4nc(Cl)ccc4[nH]2)C3)c(Cl)c1` [Compound 2188, 5-((5-chloro-1H-imidazo[4,5-b]pyridin-2-yl)methyl)-3-(2-chloro-4-methoxyphenyl)-2-methyl-4,5,6,7-tetrahydr0-2H-pyrazolo[4,3-c]pyridine]: the pIC50 against MetRS (T. brucei) is more than 7.40; at MetRS (C. parvum), 6.35. The negative-log EC50 (pEC50) with T. brucei is 6.09.

As for `CCn1c(Cc2ccc(Cl)cc2Cl)cn(CCc2nc3ccc(F)nc3[nH]2)c1=O` [Compound 2121, 4-[(2,4-dichlorophenyl)methyl]-3-ethyl-1-(2-{5-fluoro-1H-imidazo[4,5-b]pyridin-2-yl}ethyl)-2,3-dihydro-1H-imidazol-2-one], the results for the negative-log IC50 (pIC50) against MetRS (T. brucei) and at MetRS (C. parvum) were 7.39 and 6.32, respectively. In addition, the pEC50 with T. brucei is 5.87.
